Laboratory results: patent publication US20140309295A1, “ANTIEPILEPTIC, HYPOCHOLESTEROLEMIC AND NEUROPROTECTIVE COMPOUND” (NEURON BIOPHARMA, S.A., priority 2009, published 2014)

Assays:
[1] = system: human neuroblastoma SK-N-MC cells; assay: Protection against neuronal death induced by oxidative stress (xanthine/xanthine oxidase), WST-1; format: cell-based
Procedure: The assay was performed on human neuroblastoma SK-N-MC cells in culture from the American Type Culture Collection (ATCC), in all cases strict rules of sterility were followed and the manipulation was performed in class II biological safety cabinets following European standard EN 12469. The cells were maintained in the following culture medium: Minimum Essential Medium Eagle (MEM) supplemented with 1 mM sodium pyruvate, 2 mM L-glutamine, 0.1 mM non-essential amino acids, 0.05 mg/ml gentamicin and 10% fetal bovine serum.
The inhibition caused by compound NST0037 of cell death caused by treatment with xanthine/xanthine oxidase which generates oxidative damage (causes free radicals such as hydrogen peroxide, superoxide anion, hydroxyl radical), which triggers cell death, was analyzed. These cells, not exceeding 15 passages, were seeded on 96-well plates treated for adherent cells with a cell concentration of 5×10^4 cells/well; 3 wells of the plate were seeded for each condition of the assay.
After 24 hours of cell incubation at 37° C. and 5% CO2, the cell treatments were performed with 100 μl of total volume for the following conditions: • Control: culture medium (medium) • Xanthine/xanthine oxidase (XXO): medium plus 10 μM xanthine/60 mU/mL xanthine oxidase, causing the death of 50% of the cells. • XXO plus NST0037: medium plus XXO (10 μM/60 mU/mL) plus NST0037 at 1, 4, 10, 20, 40 or 100 μM.
The cells were incubated (at 37° C. and 5% CO2) with these treatments for 22 hours, after which time the WST-1 reagent (Roche) was added. The Test WST-1 is based on the measurement of metabolic activity. Cell damage causes the loss of the ability of cells to obtain the energy necessary to maintain their metabolic functions and cell growth, therefore the metabolically active (live) cells reduce tetrazolium salt to formazan by means of the succinate-tetrazolium reductase system (of the mitochondrial respiratory chain). The formazan which is formed can be detected colorimetrically since it has an absorbance of 440 nm. The reading was taken in a plate reader at 440 nm 2 hours after adding the reagent.
The assay was performed on human neuroblastoma SK-N-MC cells in culture from the American Type Culture Collection (ATCC), in all cases strict rules of sterility were followed and the manipulation was performed in class II biological safety cabinets following European standard EN 12469. […]
The effect of mevalonate on the protection caused by compound NST0037 against cell death caused by the treatment with xanthine/xanthine oxidase generating oxidative damage and cell death was analyzed. […]

[2] = system: Hep G2 (human hepatocarcinoma) line; assay: Total cholesterol levels in hepatic cell line; format: cell-based; details: HepG2, acid compounds, 20 hours, absence of FBS
Procedure: To carry out this assay, the compounds were activated with NaOH until the lactone form was completely opened.
Both the Hep G2 (human hepatocarcinoma) line and the SK-N-MC (human neuroblastoma) line were obtained from the American Type Culture Collection (ATCC no. HB-8065 and HTB-10 respectively). In all cases strict rules of sterility were followed and the manipulation was performed in class II biological safety cabinets following European standard EN 12469. The cells maintained in passage were seeded in 96-well plates in MEM supplemented with 10% FBS, 2 mM L-glutamine, 1 mM sodium pyruvate, 0.1 mM non-essential amino acids and 0.05 mg/mL gentamicin. In the case of HepG2, 4×10^4 cells/well were seeded and in the case of SK-N-MC 5×10^4 cells/well were seeded. After 24 hours had elapsed from the seeding, the cells were deprived of FBS for 8 hours. The cells were then incubated with the treatments at various concentrations for 20 hours. After the incubation period, the cells were washed with PBS and lysed with a phosphate buffer with 0.5% Triton X-100. […]
The total cholesterol was quantified by means of enzymatic and fluorometric techniques. […] The fluorescence intensity was determined at 530 nm of excitation and 580 nm of emission by means of a fluorometer. The results were normalized by protein, which was determined by means of the BCA technique.

CCC(CC)C(=O)O[C@H]1C[C@@H](C)C=C2C=C[C@H](C)[C@H](CC[C@@H]3C[C@@H](O)CC(=O)O3)[C@H]21 [NST0037, (1S,2S,6R,8S,8aR)-1,2,6,7,8,8a-hexahydro-3,7-dimethyl-8-[2-[(2R,4R)-tetrahydro-4-hydroxy-6-oxo-2H-pyran-2-yl]ethyl]-1-naphthalenyl-2-ethyl-butyrate]
maximum protection against death caused by XXO ([1]; 20 μM NST0037, 10 μM xanthine/60 mU/mL xanthine oxidase, 22 h): 78% | protection against death caused by XXO ([1]; 40 μM NST0037 (Example 14)): 57% | reduction of total cholesterol levels [2]: more potent than simvastatin
